# Test results as given in PubChem BioAssay (NCI).
#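 All cell lines were grown in 96-well plates and treated with compound for 48 hours. Here, GI50 denotes the concentration required for 50% inhibition of growth. TGI: total growth inhibition.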
# What was measured:
# Assay in all cases: growth of human tumour cells (NCI), 48 h
# [1] = test system: HCC-2998 colon
# [2] = test system: SW-620 colon
# [3] = test system: SK-MEL-28 melanoma
# [4] = test system: OVCAR-5 ovarian
# [5] = test system: A498 renal
# [6] = test system: MOLT-4 leukemia
# [7] = test system: M14 melanoma
# [8] = test system: SR leukemia
# [9] = test system: HCT-15 colon
# [10] = test system: LOX IMVI melanoma
SMILES,GI50 [1],TGI [1],GI50 [2],TGI [2],GI50 [3],TGI [3],GI50 [4],TGI [4],GI50 [5],TGI [5],GI50 [6],TGI [6],GI50 [7],TGI [7],GI50 [8],TGI [8],GI50 [9],TGI [9],GI50 [10],TGI [10]
O=CN1N=C(c2cccc(Nc3ccnc4cc(Cl)ccc34)c2)CC1c1ccccc1 (stereo not given),1.03 µM,5.57 µM,0.311 µM,14.7 µM,0.65 µM,24.6 µM,1.5 µM,> 100 µM,0.23 µM,1.1 µM,0.383 µM,2.77 µM,0.284 µM,6.75 µM,0.201 µM,1.72 µM,0.511 µM,> 100 µM,0.449 µM,4.34 µM
O=C(Nc1ccc(F)cc1)Nc1ccc(Br)c(C(F)(F)F)c1,2.38 µM,7.73 µM,3.22 µM,12.7 µM,2.83 µM,11.1 µM,2.55 µM,10.8 µM,1.92 µM,5.15 µM,1.95 µM,5.53 µM,2.29 µM,7.41 µM,1.88 µM,6.49 µM,2.35 µM,10.8 µM,2.51 µM,7.39 µM
C1CN(P2(N3CC3)=NP(N3CC3)(N3CC3)=NP(N3CC3)(N3CC3)=N2)CCO1 (stereo not given),,> 100 µM,,> 100 µM,,> 100 µM,,> 100 µM,,> 100 µM,,> 100 µM,,> 100 µM,,> 47.4 µM,,> 100 µM,,> 100 µM
C=C1SC(=Nc2ccccc2Cl)N(C(=O)c2sc3ccccc3c2Cl)C12CCCCC2,7.27 µM,> 100 µM,5.87 µM,> 100 µM,> 100 µM,> 100 µM,35.9 µM,> 100 µM,2.77 µM,74.6 µM,4.72 µM,> 100 µM,45.1 µM,> 100 µM,8.54 µM,> 100 µM,5.45 µM,> 100 µM,21.8 µM,> 100 µM
CCCCCCCC(=O)SCC/C=C/[C@@H]1CC(=O)NCc2nc(cs2)C2=N[C@@](C)(CS2)C(=O)N[C@@H](C(C)C)C(=O)N1,0.0224 µM,0.408 µM,0.0645 µM,5.57 µM,0.0185 µM,25.8 µM,0.0118 µM,> 100 µM,0.0244 µM,0.333 µM,< 0.0112 µM,> 100 µM,0.0323 µM,> 100 µM,< 0.0112 µM,> 100 µM,3.42 µM,97 µM,0.0198 µM,0.0468 µM
NCCNC(=O)c1cccc2cc3ccccc3nc12,,21.2 µM,,> 34.1 µM,,9.71 µM,,14.6 µM,,5.88 µM,,1.94 µM,,11 µM,,53.8 µM,,15 µM,,2.76 µM
Cc1nc2ccccn2c1NC(=O)NNC(=S)Nc1ccc(F)cc1,> 100 µM,> 100 µM,> 100 µM,> 100 µM,> 100 µM,> 100 µM,> 100 µM,> 100 µM,> 100 µM,> 100 µM,20.4 µM,> 100 µM,> 100 µM,> 100 µM,19.5 µM,> 100 µM,> 100 µM,> 100 µM,> 100 µM,> 100 µM
Nc1nc2cc(CC[C@H]3C[C@@H](n4ccc5c(N)ncnc54)[C@H](O)[C@@H]3O)ccc2cc1Br,11.2 µM,24.4 µM,13.3 µM,27.7 µM,12.2 µM,25.4 µM,14.2 µM,30.1 µM,2.38 µM,18.9 µM,2.43 µM,64.3 µM,11.4 µM,25.6 µM,18.7 µM,> 100 µM,11.3 µM,25.6 µM,3.95 µM,22.6 µM
CCCCCC[C@@H](C)NC(=O)c1ccc(Nc2nc3ccccc3c3occc23)cc1,2.51 µM,9.16 µM,3.38 µM,> 100 µM,5.5 µM,> 100 µM,5.72 µM,> 100 µM,2.4 µM,7.54 µM,3.71 µM,> 100 µM,2.23 µM,8.3 µM,18.9 µM,45.5 µM,8.93 µM,> 100 µM,19.3 µM,42.4 µM
C[C@H]1COCCN1c1cc(C2(S(=O)(=O)C3CC3)CC2)nc(-c2ccc(NC(=S)NCCO)cc2)n1,0.035 µM,> 70.3 µM,0.0634 µM,> 100 µM,< 0.01 µM,1.1 µM,0.0405 µM,> 100 µM,< 0.01 µM,< 0.0135 µM,0.0467 µM,> 37.8 µM,0.0287 µM,10.1 µM,0.0296 µM,> 58.2 µM,0.17 µM,> 100 µM,0.0306 µM,12.3 µM
CC1(C)OC(=O)C(C#N)=C1C[n+]1ccccc1,,> 10 µM,,> 10 µM,,> 10 µM,,> 10 µM,,> 10 µM,,> 10 µM,,> 10 µM,,> 10 µM,,> 10 µM,,> 10 µM
